The source of these data is patent publication US7807713B2, “Pan-antagonists for the androgen receptor and androgen associated with anti-androgen withdrawal” (University of Delaware, priority 2006, dated 2010).

Residue numbers refer to the chain shown, from its start. Where two headings read alike, the source gives them in different places.

Assay type in all cases: cell-based
Assay [1] deals with T1, hAR(T877A) (Homo sapiens, UniProt P10275, T878A).
T1 construct: expressed in transfected cells; host or cells: CV-1
T1 sequence (P10275 1-920 T878A): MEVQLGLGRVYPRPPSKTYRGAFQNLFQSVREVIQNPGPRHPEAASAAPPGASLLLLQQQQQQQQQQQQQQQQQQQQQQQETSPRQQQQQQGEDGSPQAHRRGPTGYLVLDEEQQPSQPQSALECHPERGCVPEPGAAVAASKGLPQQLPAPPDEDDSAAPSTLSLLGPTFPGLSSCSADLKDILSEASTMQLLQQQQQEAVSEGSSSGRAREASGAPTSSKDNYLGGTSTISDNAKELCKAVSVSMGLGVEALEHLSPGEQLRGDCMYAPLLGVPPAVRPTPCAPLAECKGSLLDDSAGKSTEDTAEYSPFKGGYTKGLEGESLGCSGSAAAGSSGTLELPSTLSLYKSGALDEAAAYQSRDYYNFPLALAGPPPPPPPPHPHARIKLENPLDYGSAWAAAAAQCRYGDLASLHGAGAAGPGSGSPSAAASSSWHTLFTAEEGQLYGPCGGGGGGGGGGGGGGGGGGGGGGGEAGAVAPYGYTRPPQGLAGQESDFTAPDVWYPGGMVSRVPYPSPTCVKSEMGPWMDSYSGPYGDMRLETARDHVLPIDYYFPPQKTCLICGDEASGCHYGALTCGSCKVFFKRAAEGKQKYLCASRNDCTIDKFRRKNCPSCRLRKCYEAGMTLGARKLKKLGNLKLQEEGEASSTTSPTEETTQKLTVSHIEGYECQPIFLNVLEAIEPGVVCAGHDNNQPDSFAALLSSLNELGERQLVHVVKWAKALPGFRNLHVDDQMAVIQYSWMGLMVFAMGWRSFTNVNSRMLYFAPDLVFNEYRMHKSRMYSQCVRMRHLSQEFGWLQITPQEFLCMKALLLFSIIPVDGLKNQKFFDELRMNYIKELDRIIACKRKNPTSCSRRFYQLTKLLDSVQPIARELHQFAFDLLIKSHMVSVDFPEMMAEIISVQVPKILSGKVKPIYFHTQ
The experiment in a line: Transcription assay (ARE-luciferase reporter, CV-1 cells), mutant androgen receptor T877A. The procedure:
(§1) Twenty-four hours prior to transfection, CV-1 cells were seeded at a density of 45,000 cells per well in 24-well cell culture plates and grown in phenol red free Dulbecco's Modified Eagle Medium (DMEM) supplemented with 10% cosmic calf serum (CCS). ARE-luciferase reporter and Renilla-Luc as the internal standard and a […] expression vector encoding the wild-type androgen receptor or mutant androgen receptor were transfected with Lipofectamine (Invitrogen) following manufacturer's protocol. Five hours after transfection, media was added containing the appropriate concentrations of ligands. The cells were allowed to incubate for 38 hours before harvesting by passive lysis buffer. Cell extracts were immediately assayed using the Dual Luciferase Assay (Promega).

For assay [2], the system named is LNCaP cells. Briefly: Cell proliferation assay (CyQuant), R1881 induced. The conditions noted are these: 8 day ligand treatment ± R1881, FIG. 9. An excerpt: FIG. 9. LNCaP cell proliferation (CyQuant) after 8 day ligand treatment±R1881. Relative Fluorescence±SEM. (R1881±ligand; P<0.05, one-way ANOVA).
Further evidence that formulae such as PLM1 can act to limit androgen dependent proliferation of prostate cells was obtained by cell proliferation assays as determined using CyQuant® assays, according to manufacturer's instructions (invitrogen).

Assay [3] addresses T2, hAR(W741C) (Homo sapiens, UniProt P10275, W742C).
T2 construct: expressed in transfected cells; host or cells: CV-1
T2 sequence (P10275 1-920 W742C): T1 sequence (P10275 1-920 T878A) with W742C, A878T
The experiment in a line: Transcription assay (ARE-luciferase reporter, CV-1 cells), mutant androgen receptor W741C. On the procedure:
as §1
A general note: Reporter assays use an easily measured gene product as a stand-in for the process of interest.

The target of assay [4] is T3, hAR(wt) (Homo sapiens, UniProt P10275).
T3 construct: expressed in transfected cells; host or cells: CV-1
T3 sequence (P10275 1-920): T1 sequence (P10275 1-920 T878A) with A878T
The experiment in a line: Transcription assay (ARE-luciferase reporter, CV-1 cells), wild-type androgen receptor. On the procedure:
as §1

For orientation: EC50 means the concentration at which the effect is half-maximal.

The compound `CC(O)(CS(=O)(=O)c1ccccc1Cc1ccccc1O)C(=O)Nc1ccc(C#N)c(C(F)(F)F)c1` (stereo not drawn) [PAN11, N-(4-cyano-3-(trifluoromethyl)phenyl)-2-hydroxy-3-(2-(2-hydroxybenzyl)phenylsulfonyl)-2-methylpropanamide] had a concentration for a half-maximal effect (EC50) in assay [1] of 1.9 nM. Take `CC(O)(CS(=O)(=O)c1ccc(Br)c2ccccc12)C(=O)Nc1ccc(C#N)c(C(F)(F)F)c1` (stereo not drawn) [PLM9, 3-(1-bromonaphthalen-4-ylsulfonyl)-N-(4-cyano-3-(trifluoromethyl)phenyl)-2-hydroxy-2-methylpropanamide]: the EC50 in assay [1] worked out at 426 ± 72 nM. For the compound `CC(O)(CS(=O)(=O)c1cccc2ccccc12)C(=O)Nc1ccc(C#N)c(C(F)(F)F)c1` (stereo not drawn) [PLM1, N-(4-cyano-3-(trifluoromethyl)phenyl)-2-hydroxy-2-methyl-3-(naphthalen-1-ylsulfonyl)propanamide], in assay [2], the “inhibiting androgen (R1881) induced proliferation of LNCaP cells” value is “at least as potent as biclutamide itself”.

`CC(O)(CS(=O)(=O)c1cccc(Cc2ccccc2)c1)C(=O)Nc1ccc(C#N)c(C(F)(F)F)c1` (stereo not drawn) [PLM3, 3-(3-benzylphenylsulfonyl)-N-(4-cyano-3-(trifluoromethyl)phenyl)-2-hydroxy-2-methylpropanamide] gave an EC50 in assay [3] of 630 ± 67 nM. As for “3-(2-phenylphenylsulfonyl)-N-(4-cyano-3-(trifluoromethyl)phenyl)-2-hydroxy-2-methylpropanamide [PLM4]”, in assay [3] (half maximal activation of reporter gene expression (agonism), '—' = no effect, read-out: hAR(W741C) EC50), the concentration for a half-maximal effect (EC50) stood at 33 ± 9.8 nM. As to `CC(O)(CS(=O)(=O)c1ccccc1Cc1cccc(O)c1)C(=O)Nc1ccc(C#N)c(C(F)(F)F)c1` (stereo not drawn) [PAN21, N-(4-cyano-3-(trifluoromethyl)phenyl)-2-hydroxy-3-(2-(3-hydroxybenzyl)phenylsulfonyl)-2-methylpropanamide], in assay [4], the EC50 was 1.8 nM.
